# pIC50: −log10 of the molar value. Read-outs that look alike come from different tables or passages of the source.
# What was measured:
# [1] = Metabolic stability assay, mouse liver microsomes; format: in vitro ADME; conditions: mouse liver microsomes 0.5 mg/mL, 1 µM compound, read-out: Liver microsomal stability (T½ /min) Mouse
# Description: (§1) Metabolic stability assay: A warm incubation for metabolic stability was performed with a system of 150 µL of liver microsomes (final concentration 0.5 mg/mL) containing NADPH (final concentration 1 mM), 1 µM of the test compound and positive control midazolam or negative control atenolol, and the reaction was terminated with acetonitrile containing tinidazole at 0 min, 5 min, 10 min and 30 min, respectively. The reaction was vortexed for 10 min and centrifuged at 15000 rmp for 10 min, and 50 µL of supernatant was taken into the 96-well plate for sampling. The metabolic stability of the compound was calculated by measuring the relative reduction of the drugs.
# [2] = Metabolic stability assay, monkey liver microsomes; format: in vitro ADME; conditions: monkey liver microsomes 0.5 mg/mL, 1 µM compound, read-out: Liver microsomal stability (T½ /min) monkey
# Description: as §1
# [3] = Metabolic stability assay, rat liver microsomes; format: in vitro ADME; conditions: rat liver microsomes 0.5 mg/mL, 1 µM compound, read-out: Liver microsomal stability (T½ /min) Rat
# Description: as §1
# [4] = Metabolic stability assay, human liver microsomes; format: in vitro ADME; conditions: human liver microsomes 0.5 mg/mL, 1 µM compound, read-out: Liver microsomal stability (T½ /min) human
# Description: as §1
# KRAS^G12C/SOS1 = target: T1, KRAS^G12C/SOS1 (Homo sapiens, UniProt P01116, G12C); assay: KRAS^G12C/SOS1 protein-protein interaction Binding assay (CisBio kit); conditions: class symbols
# T1 construct: purchased CisBio
# T1 sequence (P01116 1-188 isoform P01116-2 G12C): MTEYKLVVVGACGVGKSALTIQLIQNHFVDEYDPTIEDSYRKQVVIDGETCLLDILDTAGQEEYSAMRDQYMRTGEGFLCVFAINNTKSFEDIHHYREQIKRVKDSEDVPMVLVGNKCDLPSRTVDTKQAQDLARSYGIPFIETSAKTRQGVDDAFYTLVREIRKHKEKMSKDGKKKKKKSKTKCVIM
# Description: CisBio’s KRAS^G12C/SOS1 kit was used to test the efficacy of the compound on inhibiting the protein-protein interaction between SOS1 and KRAS^G12Cby Binding assay.Results were expressed as IC50values.
# Test methods: (1) the test compound was tested at a concentration of 1000 nM. Diluted to 3-fold diluted compound of a 200-fold final concentration of 100% DMSO solution in a 384-well plate at 10 concentrations. 50 nL of 200-fold final concentration of compound was transferred to the destination plate 384 well plate using a dispenser Echo 550.50 nL of 100% DMSO was added to the negative control wells and positive control wells; (2) 4-fold final concentration of Tag1 SOS1 solution was prepared using Diluent buffer; (3) 2.5 µL of 4-fold final concentration of Tag1 SOS1 solution was added to the 384-well plate; (4) 4-fold final concentration of Tag2 KRAS^G12C solution was prepared using Diluent buffer; (5) 2.5 µL of 4-fold final concentration of Tag2 KRAS^G12C solution was added to compound wells and positive control wells, respectively; 2.5 µL of diluent buffer was added to negative control wells; (6) the 384-well plate was centrifuged at 1000 rpm for 30 seconds, shaken and mixed, and incubated at room temperature for 15 min; (7) 1-fold final concentration of Anti Tag1 TB3+ solution and 1-fold final concentration of Anti Tag2 XL665 solution were prepared with Detection buffer, and 5 µL of the mixture was added to each well after mixing the two solutions; (8) the 384-well plate was centrifuged at 1000 rpm for 30 seconds, shaken and mixed, and incubated at room temperature for 120 minutes; (9) the Envision enzyme marker was used to read
# Em665/620; (10) data analysis, calculation formula; where Min signal is the mean value of negative control wells, Max signal is the mean value of positive control wells.The log value of concentration was used as the X-axis and the percentage inhibition as the Y-axis to fit the quantitative efficacy curve using the log(inhibitor) vs. response Variable slope of the quantitative efficacy curve of the analytical software GraphPad Prism 5 to derive the IC50 value of each compound on the enzyme activity.The fitting formula was: Y=Bottom+(Top Bottom)/(1+10^A((LogIC50X)^∗ HillSlope)).
# [5] = tested on: phosphorylated ERK levels of NCI-H358; assay: ERK phosphorylation (western blot), H358; format: cell-based; conditions: Homo sapiens, 3 h
# Description: (§2) Test method 3 (ERK phosphorylation): Miapaca-2 or H358 cells were inoculated at certain concentrations in 96-well plates and incubated overnight at 37° C., 5% CO2 in a cell culture incubator, and serial dilutions of the test compound (5 concentrations, 3-fold dilution) were added to the plates the next day for 24 h (Miapaca-2) or 3 h (H358), then lysis solution containing protease and phosphatase inhibitor were added to lyse the cells to extract proteins and western blot method was used to detect the level of p-ERK.
# [6] = tested on: phosphorylated ERK levels of MiaPaca-2; assay: ERK phosphorylation (western blot), MiaPaca-2; format: cell-based; conditions: Homo sapiens, MIA PaCa-2, 24 h
# Description: as §2
# [7] = tested on: NCI-H358 (lung cancer) cells; assay: Proliferation test method 1 (2D, MTT), NCI-H358; format: cell-based; conditions: Homo sapiens, 5-7 days, read-out: IC50 proliferation inhibitory activity against NCI-H358
# Description: (§3) Test method 1 (2D):NCI-H358 (lung cancer) and MiaPaca-2 cells (pancreatic cancer) cells (100 µL/well, 20,000 cells/mL) were inoculated in 96-well culture plates supplemented with 10% fetal bovine serum and 1% penicillin/streptomycin sulfate, respectively.Using 0.5% dimethyl sulfoxide as a blank control, cells were treated with a solution of the compound to be tested at a starting concentration of 10 µM, tripled diluted testing solution of the compound in eight gradients were used to treat cells, and then incubated in a 5% CO2 incubator for a certain period of time (5-7 days).At the end of incubation, 10 µL of MTT stock solution (5 mg/mL) was added to each well.The culture plates were incubated at 37° C. for 4 h and then the medium was removed.Dimethyl sulfoxide (100 µL) was added to each well and then shaken sufficiently. The absorbance of the product formazanwas measured at 570 nm on the Thermo Scientific Varioskan Flash multimode reader.IC50 values were obtained by fitting dose-response data into a three-parameter nonlinear regression model using GraphPad Prism 6.0 software.
# NCI-H358 cells = assay: Proliferation test method 2 (3D, Cell Titer Glo 3D), NCI-H358; format: cell-based; conditions: Homo sapiens, NCI-H358, 96 h, read-out: IC50 cell proliferation inhibitory activity against NCI-H358
# Description: (§4) Test method 2 (3D): The tumor cells in the logarithmic growth phase were diluted with culture solution to a certain concentration and inoculated on the 96-well plate on the ultra-low attachment surface, and the culture medium was 80 µL/well. Cells were incubated overnight at 37° C. in a humidity chamber. On the second day, a series of diluted test compounds (10 concentrations, 3 times dilution) were added to the plate, 20 µL/well, incubated in an incubator for 96h.The plates are removed and placed at room temperature and incubated with an equal volume of Cell Titer Glo®3D reagent for 1 h. The signal is detected by the En Vision™ plate reader. […] A four-parameter nonlinear regression curve was fitted to the percent inhibition for each concentration of the compound and the IC50 was calculated.
# [8] = tested on: MiaPaca-2 cells (pancreatic cancer); assay: Proliferation test method 1 (2D, MTT), MiaPaca-2; format: cell-based; conditions: 5-7 days, read-out: IC50/nM proliferation inhibitory activity on MiaPaca-2 cells
# Description: as §3
# MiaPaca-2 cells = assay: Proliferation test method 2 (3D, Cell Titer Glo 3D), MiaPaca-2; format: cell-based; conditions: Homo sapiens, MIA PaCa-2, 96 h, read-out: IC50 cell proliferation inhibitory activity against MiaPaca-2
# Description: as §4
Compound,half-life at 1 µM [1] [min],half-life at 1 µM [2] [min],half-life at 1 µM [3] [min],half-life at 1 µM [4] [min],IC50 (KRAS^G12C/SOS1) [nM],pIC50 [5],pIC50 [6],pIC50 [7],pIC50 (NCI-H358 cells),IC50 ([8]; 2D) [nM],"IC50 ([8]; Homo sapiens, MIA PaCa-2, 2D) [nM]",pIC50 (MiaPaca-2 cells)
"C=CC(=O)N1CC2C(=O)N(C)c3cnc4c(F)c(-c5c(O)cccc5F)c(Cl)cc4c3N2CC1C (single isomer, unassigned) [Comparative Compound 2-1, reference compound]",47,42,41,54,50 to 200,,,,,,,
"C=CC(=O)N1CCN(c2nc(OC[C@@H]3CCCN3C)nc3c(F)c(-c4ccc(F)c5sc(N)nc45)c(Cl)cc23)CC1 [Example 1, 1-(4-(7-(2-Amino-7-Fluorobenzo [d] Thiazol-4-yl) -6-Chloro-8-Fluoro-2-(((S)-1-Methylpyrrolin-2-yl) Methoxy) Quinazolin-4-yl) Piperazin-1-Yl) Prop-2-En-1-One]",,,,> 30,< 50,> 6.30,> 6.30,> 7.00,,,,
"C=CC(=O)N1CCN(c2c(C#N)cnc3c(F)c(-c4ccc(F)c5sc(N)nc45)c(Cl)cc23)[C@@H](C)C1 [Example 10, 4-((S)-4-Acryloyl-2-Methylpiperazin-1-yl)-7-(2-Amino-7-Fluorobenzo[d]Thiazol-4-yl)-6-Chloro-8-Fluoroquinolin-3-Cyano]",,,,,50 to 200,> 6.30,> 6.30,> 7.00,> 6.70,57.2,< 100,> 6.70
C=C(F)C(=O)N1CCN(c2c(C#N)c(OC[C@@H]3CCCN3C)nc3c(F)c(-c4ccc(F)c5sc(N)nc45)c(Cl)cc23)CC1 [Example 14],> 30,> 30,,> 30,50 to 200,,,,,,0.9,

# Results, then the compound that gave them:
half-life at 1 µM [1] [min],half-life at 1 µM [2] [min],half-life at 1 µM [3] [min],half-life at 1 µM [4] [min],IC50 (KRAS^G12C/SOS1) [nM],pIC50 [5],pIC50 [6],pIC50 [7],pIC50 (NCI-H358 cells),IC50 ([8]; 2D) [nM],"IC50 ([8]; Homo sapiens, MIA PaCa-2, 2D) [nM]",pIC50 (MiaPaca-2 cells),Compound
> 30,> 30,> 30,,< 50,> 6.30,> 6.30,> 7.00,> 6.70,,,> 6.70,"C=CC(=O)N1CCN(c2c(C#N)c(OCCN(C)C)nc3c(F)c(-c4ccc(F)c5sc(N)nc45)c(Cl)cc23)CC1 [Example 20, 4-(4-Acryloyl Piperazin-1-yl)-7-(2-Amino-7-Fluorobenzo [d] Thiazol-4-yl) -6-Chloro-2-(2-(Dimethylamino) Ethoxy)-8-Fluoroquinolin-3 -Cyano]"
,> 30,> 30,,< 50,,,,,,1.2,,"C=CC(=O)N1CCN(c2nc(OC[C@@H]3CCCN3C)nc3c(F)c(-c4ccc(F)c5sc(N)nc45)c(Cl)cc23)[C@@H](C)C1 [Example 23, 1-((3S)-4-(7-(2-Amino-7-Fluorobenzo [d]thiazol-4-yl) -6-Chloro-8-Fluoro-2-(((S)-1-Methylpyrrolin-2-yl) Methoxy) Quinazolin-4-yl)-3-Methylpiperazin-1-yl) Prop-2-En-1-One]"

# Reference: patent publication US20230174526A1, “BENZOTHIAZOLYL BIARYL COMPOUND, AND PREPARATION METHOD AND USE” (SHANGHAI RINGENE BIOPHARMA CO., LTD., priority 2020, published 2023)
